Source: patent publication US8148391B2 (Cephalon, Inc., priority 2006, dated 2012)
Where two headings read alike, the source gives them in different places. Each block holds one molecule with its values, some of them ahead of it.

Assays:
[1] = target: T1, c-Met (cytoplasmic domain) (Homo sapiens, UniProt P08581); experiment: c-Met Kinase Assay (same methods as for ALK, with modifications); assay type: biochemical
T1 construct: 10 ng/mL c-Met (cytoplasmic domain, Invitrogen Corporation #PV3143); purchased Invitrogen Corporation PV3143
T1 sequence (P08581 956-1390 limits assumed): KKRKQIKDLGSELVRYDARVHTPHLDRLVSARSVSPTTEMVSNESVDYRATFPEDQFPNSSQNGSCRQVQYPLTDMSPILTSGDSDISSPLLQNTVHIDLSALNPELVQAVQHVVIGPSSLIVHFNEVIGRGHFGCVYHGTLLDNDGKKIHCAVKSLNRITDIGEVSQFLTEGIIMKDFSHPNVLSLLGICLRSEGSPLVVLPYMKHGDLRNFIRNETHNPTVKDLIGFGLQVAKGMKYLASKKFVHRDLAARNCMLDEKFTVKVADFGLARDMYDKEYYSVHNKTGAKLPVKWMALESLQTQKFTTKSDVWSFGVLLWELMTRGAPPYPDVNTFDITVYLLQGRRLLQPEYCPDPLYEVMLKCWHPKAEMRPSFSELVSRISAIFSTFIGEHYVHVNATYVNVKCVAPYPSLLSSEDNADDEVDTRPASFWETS
Method in brief: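 Wells were coated with 10 μg/mL phospholipase C-γ substrate in TBS, and reactions were started with 10 ng/mL c-Met cytoplasmic domain and run at 37° C for 15 minutes. Phosphorylated product was detected with Eu-N1-labeled PT66 antibody. IC50 values came from sigmoidal variable-slope fits of percent inhibition versus log compound concentration.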

[2] = target: T2, baculovirus-expressed ALK (Homo sapiens, UniProt Q9UM73); experiment: ALK Kinase Assay (ELISA-type, time-resolved fluorescence); assay type: biochemical
T2 construct: host or cells: baculovirus expression system
T2 sequence (Q9UM73 19-1620): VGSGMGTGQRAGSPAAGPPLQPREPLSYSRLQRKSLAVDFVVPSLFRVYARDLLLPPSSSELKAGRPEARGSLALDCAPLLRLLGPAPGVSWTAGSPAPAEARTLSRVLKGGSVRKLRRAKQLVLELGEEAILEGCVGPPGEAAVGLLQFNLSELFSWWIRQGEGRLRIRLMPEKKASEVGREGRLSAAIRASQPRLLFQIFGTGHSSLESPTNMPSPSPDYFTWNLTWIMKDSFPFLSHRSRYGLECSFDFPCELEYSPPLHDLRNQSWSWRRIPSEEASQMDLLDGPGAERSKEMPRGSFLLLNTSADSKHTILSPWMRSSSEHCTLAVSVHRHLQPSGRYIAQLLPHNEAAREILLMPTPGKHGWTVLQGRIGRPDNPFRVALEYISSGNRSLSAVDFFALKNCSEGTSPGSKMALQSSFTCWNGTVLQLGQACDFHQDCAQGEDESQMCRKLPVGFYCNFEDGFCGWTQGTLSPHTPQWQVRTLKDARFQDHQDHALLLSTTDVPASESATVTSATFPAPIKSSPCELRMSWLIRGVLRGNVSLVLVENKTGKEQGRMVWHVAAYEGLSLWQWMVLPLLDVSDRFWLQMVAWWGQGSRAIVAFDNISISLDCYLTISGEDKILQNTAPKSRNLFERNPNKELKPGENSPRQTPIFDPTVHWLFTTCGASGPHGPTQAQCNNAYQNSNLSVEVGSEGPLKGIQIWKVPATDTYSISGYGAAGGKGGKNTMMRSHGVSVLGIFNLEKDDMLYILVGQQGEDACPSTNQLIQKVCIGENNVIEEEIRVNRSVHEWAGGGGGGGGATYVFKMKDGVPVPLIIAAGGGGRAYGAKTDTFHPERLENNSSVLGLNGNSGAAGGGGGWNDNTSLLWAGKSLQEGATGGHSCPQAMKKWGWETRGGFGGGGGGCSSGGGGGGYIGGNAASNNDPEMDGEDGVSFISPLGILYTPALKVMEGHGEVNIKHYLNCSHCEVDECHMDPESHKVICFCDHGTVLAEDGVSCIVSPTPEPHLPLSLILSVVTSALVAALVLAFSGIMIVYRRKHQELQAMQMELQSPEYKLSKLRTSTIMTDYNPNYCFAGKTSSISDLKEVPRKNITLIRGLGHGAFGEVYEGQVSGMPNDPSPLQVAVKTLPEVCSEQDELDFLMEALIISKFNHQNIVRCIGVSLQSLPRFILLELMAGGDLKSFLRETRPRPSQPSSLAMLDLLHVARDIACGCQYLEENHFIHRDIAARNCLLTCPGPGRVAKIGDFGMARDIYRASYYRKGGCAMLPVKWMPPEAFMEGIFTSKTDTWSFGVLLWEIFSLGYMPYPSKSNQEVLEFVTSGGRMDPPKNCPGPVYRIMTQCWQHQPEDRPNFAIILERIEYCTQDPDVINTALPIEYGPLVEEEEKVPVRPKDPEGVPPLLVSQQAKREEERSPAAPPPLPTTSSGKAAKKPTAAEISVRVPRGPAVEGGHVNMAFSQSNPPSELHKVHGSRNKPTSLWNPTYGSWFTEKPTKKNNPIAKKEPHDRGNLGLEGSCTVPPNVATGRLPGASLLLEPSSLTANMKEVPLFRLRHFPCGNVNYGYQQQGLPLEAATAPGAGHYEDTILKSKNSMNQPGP
Method in brief: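 Substrate coating: phospholipase C-γ, 10 μg/mL in TBS. Kinase step: 30 ng/ml ALK, 15 min, 37° C. Detection and analysis: Eu-N1 PT66 antibody, with IC50 fitted as a sigmoidal variable-slope dose-response curve.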

[3] = 1 μM ATP (Km level), read-out: cMet Activity (c-Met Kinase Inhibition, IC50)
[4] = 1 μM ATP (Km level), read-out: ALK Activity (ALK Kinase Inhibition, IC50)
[5] = 1 μM ATP (Km level), 10 ng/mL c-Met, read-out: cMet Activity (c-Met kinase inhibition, IC50 class)
[6] = 1 μM ATP (Km level), 30 ng/ml ALK, 37° C., 15 minutes, read-out: ALK Activity (ALK kinase inhibition, IC50 class)
[7] = c-Met kinase inhibition, 1 μM ATP, read-out: cMet Activity
[8] = ALK kinase inhibition, 1 μM ATP, read-out: ALK Activity
[9] = c-Met kinase inhibition, 1 μM ATP (Km level), read-out: cMet Activity
[10] = ALK kinase inhibition, 1 μM ATP (Km level), read-out: ALK Activity

IC50 [1, 3]: > 10000 nM
IC50 [2, 4]: < 100 nM
Molecule: CS(=O)(=O)N[C@@H]1CCCC[C@H]1Nc1nc(Nc2cccc3c2OCCCC3)ncc1Cl [Example 863, N-{(1R,2R)-2-[5-Chloro-2-(2,3,4,5-tetrahydro-benzo[b]oxepin-9-ylamino)pyrimidin-4-ylamino]-cyclohexyl}-methanesulfonamide]

IC50 [1, 3]: > 10000 nM
IC50 [2, 4]: < 100 nM
Molecule: COc1ccc(Nc2nc(Nc3cc4c(cc3OC)CCN(C(=O)C3COCCO3)CC4)ncc2Cl)c(-n2cccn2)c1 (stereo not drawn) [Example 633, {7-[5-Chloro-4-(4-methoxy-2-pyrazol-1-yl-phenylamino)-pyrimidin-2-ylamino]-8-methoxy-1,2,4,5-tetrahydro-benzo[d]azepin-3-yl}-[1,4]dioxan-2-yl-methanone]

IC50 [1, 5]: < 100 nM
IC50 [2, 6]: 100 to 1000 nM
Molecule: CNC(=O)c1cc(Br)cc(F)c1Nc1nc(Nc2ccc3c(c2)NC(=O)CCC3)ncc1Cl [Example 1414, 5-Bromo-2-[5-chloro-2-(2-oxo-2,3,4,5-tetrahydro-1H-benzo[b]azepin-8-ylamino)-pyrimidin-4-ylamino]-3-fluoro-N-methyl-benzamide]

IC50 [1, 3]: > 10000 nM
IC50 [2, 4]: 1000 to 10000 nM
Molecule: COc1ccc(Nc2ncc(Cl)c(Nc3ccccc3S(=O)(=O)N(C)C)n2)c2c1CCCC(N1CCOCC1)C2 (stereo not drawn) [Example 945, 2-[5-Chloro-2-(4-methoxy-8-morpholin-4-yl-6,7,8,9-tetrahydro-5H-benzocyclohepten-1-ylamino)-pyrimidin-4-ylamino]-N,N-dimethyl-benzenesulfonamide]

IC50 [1, 5]: > 10000 nM
IC50 [2, 6]: < 100 nM
Molecule: CNC(=O)C1(Nc2nc(Nc3cc4c(cc3OC)CCN(CC(=O)N(C)C)CC4)ncc2Cl)CC1 [Example 1198, 1-[5-Chloro-2-(3-dimethylcarbamoylmethyl-8-methoxy-2,3,4,5-tetrahydro-1H-benzo[d]azepin-7-ylamino)-pyrimidin-4-ylamino]-cyclopropanecarboxylic acid methylamide]

IC50 [1, 7]: 100 to 1000 nM
IC50 [2, 8]: 100 to 1000 nM
Molecule: COCCOc1cccc(F)c1Nc1nc(Nc2ccc3c(c2)NC(=O)CCC3)ncc1Cl [Example 1695, 8-{5-Chloro-4-[2-fluoro-6-(2-methoxy-ethoxy)-phenylamino]-pyrimidin-2-ylamino}-1,3,4,5-tetrahydro-benzo[b]azepin-2-one]

IC50 [1, 7]: 100 to 1000 nM
IC50 [2, 8]: 1000 to 10000 nM
Molecule: CNC(=O)c1cccc(Cl)c1Nc1nc(Nc2ccc3c(c2)-n2ccnc2CCC3)ncc1Cl [Example 1839, 2-[5-Chloro-2-(5,6-dihydro-4H-3,10b-diaza-benzo[e]azulen-9-ylamino)-pyrimidin-4-ylamino]-3-chloro-N-methyl-benzamide]

IC50 [1, 3]: > 10000 nM
IC50 [2, 4]: < 100 nM
Molecule: COc1cc2c(cc1Nc1ncc(Cl)c(Nc3ccc(OC)c4c3C(=O)N(C)C4)n1)CCN(CC(=O)N(C)C)CC2 [Example 937, 2-{7-[5-Chloro-4-(7-methoxy-2-methyl-3-oxo-2,3-dihydro-1H-isoindol-4-ylamino)-pyrimidin-2-ylamino]-8-methoxy-1,2,4,5-tetrahydro-3-benzazepin-3-yl}-N,N-dimethyl-acetamide]

IC50 [1, 3]: > 10000 nM
IC50 [2, 4]: 100 to 1000 nM
Molecule: COc1cc2c(cc1Nc1ncc(Cl)c(Nc3ccc(N4CCOCC4)cc3OC)n1)CCN(CC(C)(F)F)CC2 [Example 780, 5-Chloro-N*2*-[3-(2,2-difluoro-propyl)-8-methoxy-2,3,4,5-tetrahydro-1H-benzo[d]azepin-7-yl]-N*4*-(2-methoxy-4-morpholin-4-yl-phenyl)-pyrimidine-2,4-diamine]

IC50 [1, 9]: 100 to 1000 nM
IC50 [2, 10]: < 100 nM
Molecule: CNC(=O)c1ccccc1Nc1nc(Nc2cc3c(cc2OC)CCN(CCOC)CC3)ncc1Cl [Example 241, 2-{5-Chloro-2-[8-methoxy-3-(2-methoxy-ethyl)-2,3,4,5-tetrahydro-1H-benzo[d]azepin-7-ylamino]-pyrimidin-4-ylamino}-N-methyl-benzamide]

IC50 [1, 5]: > 10000 nM
IC50 [2, 6]: < 100 nM
Molecule: CCN1C(=O)C(NC(=O)C(F)(F)F)CCc2c1ccc(Nc1ncc(Cl)c(Nc3ccccc3S(=O)(=O)C(C)C)n1)c2OC (stereo not drawn) [Example 1333, N-(7-{5-Chloro-4-[2-(propane-2-sulfonyl)-phenylamino]-pyrimidin-2-ylamino}-1-ethyl-6-methoxy-2-oxo-2,3,4,5-tetrahydro-1H-benzo[b]azepin-3-yl)-2,2,2-trifluoro-acetamide]

IC50 [1, 7]: 1000 to 10000 nM
IC50 [2, 8]: < 100 nM
Molecule: COc1cc2c(cc1Nc1ncc(Cl)c(Nc3ccccc3S(=O)(=O)N(C)C)n1)CCN(CCN1CCOCC1)CC2 [Example 1522, 2-{5-Chloro-2-[8-methoxy-3-(2-morpholin-4-yl-ethyl)-2,3,4,5-tetrahydro-1H-3-benzazepin-7-ylamino]-pyrimidin-4-ylamino}-N,N-dimethyl-benzenesulfonamide]

Molecule: COCCN1C2CCC1c1cc(Nc3ncc(Cl)c(Nc4c(F)cccc4C(=O)OC(C)C)n3)ccc1C2 (stereo not drawn) [Example 457, 2-{5-Chloro-2-[12-(2-methoxy-ethyl)-12-aza-tricyclo[7.2.1.0(2,7)]dodeca-2(7),3,5-trien-4-ylamino]-pyrimidin-4-ylamino}-3-fluoro-benzoic acid isopropyl ester]
IC50 [1, 9]: 100 to 1000 nM
IC50 [2, 10]: 100 to 1000 nM

IC50 [1, 3]: > 10000 nM
IC50 [2, 4]: < 100 nM
Molecule: COCCNC1CCc2cc(Nc3ncc(Cl)c(N[C@@H]4CCCC[C@H]4NS(C)(=O)=O)n3)c(OC)cc2CC1 (stereo partly drawn) [Example 895, N-((1R,2R)-2-{5-Chloro-2-[3-methoxy-7-(2-methoxy-ethylamino)-6,7,8,9-tetrahydro-5H-benzocyclohepten-2-ylamino]-pyrimidin-4-ylamino}-cyclohexyl)-methanesulfonamide]

IC50 [1, 3]: > 10000 nM
IC50 [2, 4]: 100 to 1000 nM
Molecule: COCCn1ccnc1-c1ccccc1Nc1nc(Nc2ccc3c(c2)C(C)(C)CCC(=O)N3)ncc1Cl [Example 980, 7-(5-Chloro-4-{2-[1-(2-methoxy-ethyl)-1H-imidazol-2-yl]-phenylamino}-pyrimidin-2-ylamino)-5,5-dimethyl-1,3,4,5-tetrahydro-benzo[b]azepin-2-one]

IC50 [1, 9]: > 10000 nM
IC50 [2, 10]: < 100 nM
Molecule: COc1cc2c(cc1Nc1ncc(Cl)c(NC3C4C=CC(C4)C3C(N)=O)n1)CCN(CC(=O)N(C)C)CC2 (stereo not drawn) [Example 260, (2-exo,3-exo)-3-[5-Chloro-2-(3-dimethylcarbamoylmethyl-8-methoxy-2,3,4,5-tetrahydro-1H-benzo[d]azepin-7-ylamino)-pyrimidin-4-ylamino]-bicyclo[2.2.1]hept-5-ene-2-carboxylic acid amide]

IC50 [1, 7]: < 100 nM
IC50 [2, 8]: < 100 nM
Molecule: O=C1CCCc2ccc(Nc3ncc(Cl)c(Nc4ccccc4S(=O)(=O)N4CCCC4)n3)cc2N1 [Example 1731, 8-{5-Chloro-4-[2-(pyrrolidine-1-sulfonyl)-phenylamino]-pyrimidin-2-ylamino}-1,3,4,5-tetrahydro-benzo[b]azepin-2-one]

IC50 [1, 3]: > 10000 nM
IC50 [2, 4]: < 100 nM
Molecule: COc1c(Nc2ncc(Cl)c(N[C@@H]3CCCC[C@H]3NS(C)(=O)=O)n2)ccc2c1CCC(NCCO)CC2 (single isomer, unassigned) [Example 698]

IC50 [1, 7]: > 10000 nM
IC50 [2, 8]: 100 to 1000 nM
Molecule: COCCN1CCCC(C)(C)c2ccc(Nc3ncc(Cl)c(Nc4ccc(N5CCOCC5)cc4OC)n3)cc21 [Example 1601, 5-Chloro-N*2*-[1-(2-methoxy-ethyl)-5,5-dimethyl-2,3,4,5-tetrahydro-1H-benzo[b]azepin-8-yl]-N*4*-(2-methoxy-4-morpholin-4-yl-phenyl)-pyrimidine-2,4-diamine]

IC50 [1, 5]: 1000 to 10000 nM
IC50 [2, 6]: 100 to 1000 nM
Molecule: CCN1C(=O)CCCc2ccc(Nc3ncc(Cl)c(Nc4ccccc4CCC#N)n3)cc21 [Example 1232, 3-{2-[5-Chloro-2-(1-ethyl-2-oxo-2,3,4,5-tetrahydro-1H-1-benzazepin-8-ylamino)-pyrimidin-4-ylamino]-phenyl}-propionitrile]

IC50 [1, 7]: 100 to 1000 nM
IC50 [2, 8]: 1000 to 10000 nM
Molecule: CNC(=O)c1cccc(F)c1Nc1nc(Nc2ccc3c(c2)N(C(=O)CN2CCCC2)CCCO3)ncc1Cl [Example 1704, 2-{5-Chloro-2-[9-(2-pyrrolidin-1-yl-acetyl)-6,7,8,9-tetrahydro-5-oxa-9-aza-benzocyclohepten-2-ylamino]-pyrimidin-4-ylamino}-3-fluoro-N-methyl-benzamide]

IC50 [1, 9]: 1000 to 10000 nM
IC50 [2, 10]: < 100 nM
Molecule: COCCN1CCc2ccc(Nc3ncc(Cl)c(N[C@@H]4CCCC[C@H]4NS(=O)(=O)CC(F)(F)F)n3)cc2CC1 [Example 452, 2,2,2-Trifluoro-ethanesulfonic acid ((1R,2R)-2-{5-chloro-2-[3-(2-methoxy-ethyl)-2,3,4,5-tetrahydro-1H-benzo[d]azepin-7-ylamino]-pyrimidin-4-ylamino}-cyclohexyl)-amide]

IC50 [1, 7]: 1000 to 10000 nM
IC50 [2, 8]: 1000 to 10000 nM
Molecule: 8-[5-Chloro-4-(2-pyrazol-1-yl-phenylamino)-pyrimidin-2-ylamino]-3-methyl-1,3,4,5-tetrahydro-benzo[d]azepin-2-one [Example 1819]

IC50 [1, 5]: < 100 nM
IC50 [2, 6]: < 100 nM
Molecule: CC(C)S(=O)(=O)c1ccccc1Nc1nc(Nc2ccc3c(c2)C(C)(C)CCC(=O)N3C)ncc1Cl [Example 1329, 7-{5-Chloro-4-[2-(propane-2-sulfonyl)-phenylamino]-pyrimidin-2-ylamino}-1,5,5-trimethyl-1,3,4,5-tetrahydro-benzo[b]azepin-2-one]
